The source made the active and inactive calls. No cut-off for these calls is given here.
Tests used:
[1] = system: CAKI-1; assay: Growth inhibition of human CAKI1 cells after 48 hrs by SRB assay; type: functional; settings: CAKI-1, 48 h
[2] = system: ACHN; assay: Growth inhibition of human ACHN cells after 48 hrs by SRB assay; type: functional
[3] = Growth inhibition of human OVACR4 cells after 48 hrs by SRB assay; type: functional
[4] = system: SN12C; assay: Growth inhibition of human SN12C cells after 48 hrs by SRB assay; type: functional
[5] = Growth inhibition of human OVACR3 cells after 48 hrs by SRB assay; type: functional
[6] = system: U-251; assay: Growth inhibition of human U251 cells after 48 hrs by SRB assay; type: functional; settings: U-251, 48 h
[7] = system: NCI-H226; assay: Growth inhibition of human NCI-H226 cells after 48 hrs by SRB assay; type: functional; settings: NCI-H226, 48 h
[8] = system: SK-MEL-5; assay: Growth inhibition of human SK-MEL-5 cells after 48 hrs by SRB assay; type: functional; settings: SK-MEL-5, 48 h
[9] = system: TK-10; assay: Growth inhibition of human TK10 cells after 48 hrs by SRB assay; type: functional; settings: TK-10, 48 h
[10] = system: NCI/ADR-RES; assay: Growth inhibition of human NCI/ADR-RES cells after 48 hrs by SRB assay; type: functional
[11] = system: UACC-62; assay: Growth inhibition of human UACC62 cells after 48 hrs by SRB assay; type: functional; settings: UACC-62, 48 h
[12] = Growth inhibition of human HL60(TB) cells after 48 hrs by SRB assay; type: functional, HL-60(TB); settings: Homo sapiens, HL-60, 48 h
[13] = system: K562; assay: Growth inhibition of human K562 cells after 48 hrs by SRB assay; type: functional; settings: K562, 48 h
[14] = system: KM12; assay: Growth inhibition of human KM12 cells after 48 hrs by SRB assay; type: functional; settings: KM12, 48 h
[15] = system: MDA-MB-435; assay: Growth inhibition of human MDA-MB-435 cells after 48 hrs by SRB assay; type: functional; settings: MDA-MB-435, 48 h
[16] = system: NCI-H23; assay: Growth inhibition of human NCI-H23 cells after 48 hrs by SRB assay; type: functional; settings: NCI-H23, 48 h
[17] = system: HT-29; assay: Growth inhibition of human HT29 cells after 48 hrs by SRB assay; type: functional; settings: HT-29, 48 h
[18] = system: SNB-75; assay: Growth inhibition of human SNB75 cells after 48 hrs by SRB assay; type: functional; settings: SNB-75, 48 h
[19] = system: SR; assay: Growth inhibition of human SR cells after 48 hrs by SRB assay; type: functional
[20] = system: RXF 393; assay: Growth inhibition of human […] cells after 48 hrs by SRB assay; type: functional; settings: RXF 393, 48 h
[21] = system: A498; assay: Growth inhibition of human A498 cells after 48 hrs by SRB assay; type: functional; settings: A498, 48 h
[22] = system: MCF7; assay: Growth inhibition of human MCF7 cells after 48 hrs by SRB assay; type: functional; settings: MCF7, 48 h
[23] = system: MDA-MB-231; assay: Growth inhibition of human MDA-MB-231 cells after 48 hrs by SRB assay; type: functional; settings: MDA-MB-231, 48 h
[24] = system: DU-145; assay: Growth inhibition of human DU145 cells after 48 hrs by SRB assay; type: functional; settings: DU-145, 48 h
[25] = system: SF-539; assay: Growth inhibition of human SF539 cells after 48 hrs by SRB assay; type: functional; settings: SF-539, 48 h
[26] = system: IGROV-1; assay: Growth inhibition of human IGROV1 cells after 48 hrs by SRB assay; type: functional; settings: IGROV-1, 48 h
[27] = system: Hs-578T; assay: Growth inhibition of human HS578T cells after 48 hrs by SRB assay; type: functional
[28] = system: Malme-3M; assay: Growth inhibition of human MALME-3M cells after 48 hrs by SRB assay; type: functional
[29] = system: NCI-60; assay: Growth inhibition of human NCI-60 cells at 1.0 uM; type: functional, cell-based
[30] = system: MDA-MB-468; assay: Growth inhibition of human MDA-MB-468 cells after 48 hrs by SRB assay; type: functional; settings: MDA-MB-468, 48 h
[31] = system: MOLT-4; assay: Growth inhibition of human MOLT4 cells after 48 hrs by SRB assay; type: functional; settings: MOLT-4, 48 h
[32] = system: SF-295; assay: Growth inhibition of human SF295 cells after 48 hrs by SRB assay; type: functional; settings: SF-295, 48 h
[33] = system: EKVX; assay: Growth inhibition of human EKVX cells after 48 hrs by SRB assay; type: functional
[34] = system: SK-OV-3; assay: Growth inhibition of human SK-OV-3 cells after 48 hrs by SRB assay; type: functional; settings: SK-OV-3, 48 h
[35] = system: T47D; assay: Growth inhibition of human T47D cells after 48 hrs by SRB assay; type: functional
[36] = system: A549; assay: Growth inhibition of human A549 cells after 48 hrs by SRB assay; type: functional; settings: A549, 48 h
[37] = system: SW-620; assay: Growth inhibition of human SW620 cells after 48 hrs by SRB assay; type: functional; settings: SW-620, 48 h
[38] = system: HCT-15; assay: Growth inhibition of human HCT15 cells after 48 hrs by SRB assay; type: functional; settings: HCT-15, 48 h
[39] = system: NCI-H460; assay: Growth inhibition of human NCI-H460 cells after 48 hrs by SRB assay; type: functional; settings: NCI-H460, 48 h
[40] = system: COLO 205; assay: Growth inhibition of human COLO205 cells after 48 hrs by SRB assay; type: functional; settings: COLO 205, 48 h
[41] = system: NCI-H322M; assay: Growth inhibition of human NCI-H322M cells after 48 hrs by SRB assay; type: functional
[42] = read-out: LC50 (the source's name)

Compound: Cc1ccc(C2=Nc3c(N)ncnc3NC(c3ccc4c(c3)OCO4)C2)cc1 (racemic)
- GI50 [1]: 1.44 µM
- CC50 [1, 42]: > 100 µM
- GI50 [2]: 7.74 µM
- LC50 (lethal concentration 50%) [2]: > 100 µM
- GI50 [3]: 17.7 µM
- LC50 [3]: > 100 µM
- GI50 [4]: 8.61 µM
- CC50 [4, 42]: > 100 µM
- GI50 [5]: 2.75 µM
- LC50 [5]: 23.3 µM
- GI50 [6]: 4.55 µM
- CC50 [6, 42]: 44.5 µM
- GI50 [7]: 12.6 µM
- CC50 [7, 42]: > 100 µM
- GI50 [8]: 3.85 µM
- CC50 [8, 42]: > 100 µM
- GI50 [9]: 4.47 µM
- CC50 [9, 42]: 69.7 µM
- GI50 [10]: 3.52 µM
- CC50 [10, 42]: > 100 µM
- GI50 [11]: 4.09 µM
- CC50 [11, 42]: > 100 µM
- GI50 [12]: 0.72 µM
- CC50 [12, 42]: > 100 µM
- GI50 [13]: 4.19 µM
- LC50 [13]: > 100 µM
- GI50 [14]: 3.79 µM
- CC50 [14, 42]: 75.1 µM
- GI50 [15]: 1.15 µM
- CC50 [15, 42]: 90.8 µM
- GI50 [16]: 10.2 µM
- CC50 [16, 42]: > 100 µM
- GI50 [17]: 3.81 µM
- CC50 [17, 42]: > 100 µM
- GI50 [18]: 4.55 µM
- CC50 [18, 42]: > 100 µM
- GI50 [19]: 0.25 µM
- LC50 (concentration killing 50% of cells) [19]: > 100 µM
- GI50 [20]: 3.5 µM
- CC50 [20, 42]: > 100 µM
- GI50 [21]: 6.33 µM
- LC50 [21]: > 100 µM
- GI50 [22]: 3.42 µM
- LC50 [22]: > 100 µM
- GI50 [23]: 4.37 µM
- CC50 [23, 42]: 55.6 µM
- GI50 [24]: 4.52 µM
- CC50 [24, 42]: 46.7 µM
- GI50 [25]: 4.98 µM
- CC50 [25, 42]: 69.9 µM
- GI50 [26]: 3.34 µM
- CC50 [26, 42]: > 100 µM
- GI50 [27]: 7.28 µM
- CC50 [27, 42]: > 100 µM
- GI50 [28]: 3.01 µM
- CC50 [28, 42]: > 100 µM
- Activity [29]: Active
- GI50 [30]: 3.68 µM
- CC50 [30, 42]: > 100 µM
- GI50 [31]: 2.66 µM
- CC50 [31, 42]: > 100 µM
- GI50 [32]: 4.98 µM
- LC50 [32]: > 100 µM
- GI50 [33]: 16.2 µM
- CC50 [33, 42]: > 100 µM
- GI50 [34]: 15.8 µM
- CC50 [34, 42]: > 100 µM
- GI50 [35]: 5.72 µM
- CC50 [35, 42]: > 100 µM
- GI50 [36]: 7.09 µM
- LC50 [36]: > 100 µM
- GI50 [37]: 3.56 µM
- CC50 [37, 42]: > 100 µM
- GI50 [38]: 3.14 µM
- CC50 [38, 42]: 55.2 µM
- GI50 [39]: 3.59 µM
- CC50 [39, 42]: > 100 µM
- GI50 [40]: 3.47 µM
- CC50 [40, 42]: > 100 µM
- GI50 [41]: 16.5 µM
- CC50 [41, 42]: > 100 µM

Source: ChEMBL document CHEMBL1156714, “Microwave induced synthesis of novel 8,9-dihydro-7H-pyrimido[4,5-b][1,4]diazepines as potential antitumor agents” (2008)
